In patent publication US11470844B2, “Vespidae wasp repellent” (KINP CO., LTD, priority 2015, dated 2022):

How the values were obtained:
Format in all cases: in vivo
Vespa mandarinia worker = assay: Black ball nest disturbance, Experiment 1 (ball with adsorbed alarm pheromone); conditions: for total number of workers alighting on the black ball for attack: alarm pheromone adsorbed ball
Experimental: The experiment was conducted with utilizing a nest of Vespa mandarinia found in Kagawa Prefecture Kinbuchi Forest Park in Takamatsu City Kagawa Prefecture on Oct. 24, 2014. Since the nest was built in the ground, the nest could not be found except for the entrance thereof.
A vinyl ball of which diameter was 13 cm and which was coated with black lacquer was hung on the tip of a fishing rod having a length of 11 m. Hereinafter, the ball was abbreviated as “black ball”. After distilled water was sprayed on the entire surface, the vicinity of the nest entrance was disturbed by using the black ball. Specifically, the nest was disturbed by vibrating the black ball about 50 cm before the nest entrance in the air for about 10 seconds or vibrating the black ball in contact with the nest entrance for about 10 seconds. After the black ball was vibrated in the above-described conditions for about 10 seconds, the black ball was moved to the air of about 1 m before the nest entrance, and the behavior of the Vespa mandarinia worker against the black ball was shot and recorded for 2 minutes with a video camera. In the above condition, both of the black balls used in both conditions were attacked by the Vespa mandarinia workers and it is considered that the alarm pheromone was adsorbed on the black balls. Then, the black ball was kept away from the nest so that all the Vespa mandarinia workers were separated, 2-phenylethanol was sprayed on the entire surface, and the behavior of the workers against the black ball was similarly observed. The total number of workers alighting on the surface of the hemispherical side observable by the video image for attack during the vibration of the black ball was counted.

Vespa mandarinia = assay: Grape juice attraction trap set outside
Experimental: The inventors conducted the experiment at four places in Kagawa Prefecture Kinbuchi Forest Park. The experiment was conducted totally 4 times from Oct. 11 to Nov. 4, 2013, from Nov. 4 to Dec. 7, 2013, from Oct. 1 to Oct. 31, 2014, and from Oct. 31 to Dec. 9, 2014.
First, four 2 cm square holes were opened on the side of a 2 L capacity PET bottle, and 500 mL of grape juice was added thereto to prepare a control attraction trap to kill a Vespidae worker. As Test liquid example, 25 mL, 5 mL or 1 mL of 2-phenylethanol was added to the grape juice of the traps. […] Since all of the test sites were low mountainous and sloping areas and had many trees, each trap had to be suspended from the branch of live trees. As a result, the horizontal distances between a pair of control example trap and test liquid example trap could not be adjusted to the same, and the distance was from 1 m to 8.5 m. There were not only Vespidae worker but also male Vespidae among the killed Vespidae wasps in the attraction traps; however, the results of the control example and test liquid example were compared on the basis of the number of the killed Vespidae worker, since a Vespidae worker causes a stabbing accident and plays an important role in building a nest. In Table 8, “*” indicates the case where there is a significant difference at p<0.01 in the χ^2 test to which the correction of Yates is applied, and “**” indicates the case where there is a significant difference at p<0.001 in the same test. The result of the first experiment in 2013 is shown in Table 9, the result of the second experiment in 2013 is shown in Table 10, the result of the first experiment using 1% 2-phenylethanol in 2014 is shown in Table 11, the result of the second experiment in 2014 is shown in Table 12, the result of the first experiment using 0.1% 2-phenylethanol in 2014 is shown in Table 13, and the result of the second experiment in 2014 is shown in Table 14. In Tables 9 to 14, “*” indicates the case where there is a significant difference at p<0.05 in the t-test, “**” indicates the case where there is a significant difference at p<0.01 in the same test, and “***” indicates the case where there is a significant difference at p<0.001 in the same test.
In the first experiment and second experiment, the trap prepared by adding 25 mL of 2-phenylethanol to 500 mL of grape juice was used as the test liquid example of 5% 2-phenylethanol.
In the first experiment and second experiment, 10 traps prepared by adding 5 mL of 2-phenylethanol to 500 mL of grape juice and 10 traps prepared by adding 0.5 mL of 2-phenylethanol to 500 mL of grape juice were used respectively as the 2 kinds of test liquid examples of 1% 2-phenylethanol and 0.1% 2-phenylethanol to conduct the experiment.

[1] = tested on: Vespa simillima xanthoptera Cameron worker; assay: Black ball nest disturbance, Experiment 1; conditions: previously attacked ball
Experimental: The experiment was also conducted with utilizing a nest of Vespa simillima xanthoptera Cameron in Kagawa Prefecture Kinbuchi Forest Park in Takamatsu City Kagawa Prefecture on Oct. 24, 2014. Since the nest was also built in the ground, the nest could not be found except for the entrance thereof.
As the above-described Example 2(1), the nest entrance was disturbed by vibrating the black ball in contact with the nest entrance for about 10 seconds. The total number of attacking worker could not be counted, since the number of the worker which attacked to the control black ball using distilled water was much larger than that of the control in the experiment for Vespa mandarinia and the worker moved very rapidly. Thus, the video image was stopped every 30 seconds from the end of the nest entrance disturbance and the number of the worker which alighted on the hemispherical surface of the black ball for attack was counted. During 120 seconds for the experiment, the workers continued to strongly attack to the black ball as the workers constantly flew to and alighted on the black ball for attack and the worker number was not decreased. Such an attack was continued even after the end of the experiment at which the tip of the rod was moved to a place 5 m or more away from the nest, and the attack was finally not observed after about 20 minutes passed from the experiment was finished. Then, 2-phenylethanol was sprayed on the black ball to which Vespa simillima xanthoptera attacked as the test liquid example and the nest entrance was disturbed using the black ball. Although the worker which tried to come close to the black ball was observed, even the closest worker changed the direction in the air 10 to 20 cm from the surface of the black ball and flew away, and no worker which flew to and alighted on the surface of the black ball was found.

[2] = 0.1% 2-phenylethanol trap, first experiment 2014, 10 traps
[3] = 0.1% 2-phenylethanol trap, second experiment 2014, 10 traps
[4] = 1% 2-phenylethanol trap, first experiment 2014, 10 traps
[5] = 1% 2-phenylethanol trap, second experiment 2014, 10 traps
[6] = 5% 2-phenylethanol trap, first experiment 2013, 18 traps
[7] = 5% 2-phenylethanol trap, second experiment 2013, 18 traps

OCCc1ccccc1 [2-Phenylethanol, 2-phenylethanol]
total number of workers alighting on the black ball for attack (Vespa mandarinia worker; Vibration in contact with nest entrance): 0 | total number of workers alighting on the black ball for attack (Vespa mandarinia worker; Vibration in the air before nest entrance): 0 | distance from the surface of the black ball at which workers changed direction and flew away (Vespa mandarinia worker; in vivo): about 10 cm | Total number of killed worker (Average ± SD), Vespa mandarinia (Vespa mandarinia; [2]): (3.60 ± 5.58) | Total number of killed worker, Vespa mandarinia (Vespa mandarinia; [2]): 36 | Total number of killed worker (Average ± SD), Vespa mandarinia (Vespa mandarinia; [3]): (0.30 ± 0.95) | Total number of killed worker, Vespa mandarinia (Vespa mandarinia; [3]): 3 | Total number of killed worker (Average ± SD), Vespa mandarinia (Vespa mandarinia; [4]): (0.00 ± 0.00) | Total number of killed worker, Vespa mandarinia (Vespa mandarinia; [4]): 0 | Total number of killed worker (Average ± SD), Vespa mandarinia (Vespa mandarinia; [5]): (0.00 ± 0.00) | Total number of killed worker, Vespa mandarinia (Vespa mandarinia; [5]): 0 | Total number of killed worker (Average ± SD), Vespa mandarinia (Vespa mandarinia; [6]): (0.00 ± 0.00) | Total number of killed worker, Vespa mandarinia (Vespa mandarinia; [6]): 0 | Total number of killed worker (Average ± SD), Vespa mandarinia (Vespa mandarinia; [7]): (0.00 ± 0.00) | Total number of killed worker, Vespa mandarinia (Vespa mandarinia; [7]): 0 | number of worker alighted on hemispherical surface of black ball for attack ([1]; 30 s after disturbance): 0 | number of worker alighted on hemispherical surface of black ball for attack ([1]; 60 s after disturbance): 0 | number of worker alighted on hemispherical surface of black ball for attack ([1]; 90 s after disturbance): 0 | number of worker alighted on hemispherical surface of black ball for attack ([1]; 120 s after disturbance): 0
